Here are results for 14 compounds from the OPERA property sets (Mansouri et al. 2018).

Structures are written as SMILES.

As a reminder, the logP is the decadic logarithm of the partition coefficient of the neutral form, usually between octanol and water. Read a low logP as a more hydrophilic compound. Take `CCCCCCCCCc1cccc(O)c1`: the logP came out at 5.61.

Turning to `CCCCCCCCCCCc1ccccc1O`, the logP came to 7.17.

`CCCCCCCCCCCCCc1ccc(O)cc1O` had a logP of 6.84.

In turn, `CCCCCCCCCCCCc1ccc(O)cc1` returned a lipophilicity (logP) of 7.91.

The compound `CCCCCCCCCCCc1cccc(O)c1O` showed a logP of 6.3.

`CCCCCCCCCCCCCc1ccccc1O` yielded a logP of 8.61.

Consider `CCCCCCCCCCCCCCCc1ccc(O)cc1O`, for which the logP stood at 8.29.

`CCCCCc1ccc(O)c(O)c1` registered a logP of 3.11.

The compound `CCCCCCCCCCCCCc1cccc(O)c1O` had a logP of 7.75.

Regarding `CCCCCCCCCc1ccccc1O`, the logP worked out at 5.76.

Compound `CCCCCCCCCCCc1ccc(O)cc1` had a logP of 7.18.

For `CCCCCCCCCCCc1cccc(O)c1`, the lipophilicity (logP) turned out to be 6.98.

With `CCCCCCCCCCCc1ccc(O)c(O)c1`, the logP stood at 6.97.

`CCCCCCCCCc1ccc(O)cc1` came in with a logP of 5.76.
